Experimental data published in US20250073357A1, “GADOLINIUM-BASED COMPOUND, AND MRI CONTRAST AGENT INCLUDING SAME” (THERANOCURE CO., LTD., priority 2021, published 2025).

Key:
[1] = target: amyloid beta polymer (Homo sapiens, UniProt P05067); test: Amyloid beta polymer targeting ability, MRI phantom experiment; format: binding; settings: incubated with amyloid beta polymer 37° C. 24 hours, washed, 9.4T MR
Experimental: • (1) 221.5 uL of HFIP was added to 1 mg of amyloid beta at a concentration of 1 mM, followed by shaking for 1 hour at room temperature using a shaker to remove preaggregation. • (2) The amyloid beta from which the preaggregation was removed was dried, and 221.5 uL of DMSO was added thereto to achieve a 1 mM concentration. Using a mixer and sonicator, a suspension thereof was prepared, and 878.5 uL of PBS (1×, pH 7.4) was added thereto to achieve a 0.2 mM concentration. • (3) After incubating the suspension at 37° C. for 4 days using a shaker, the polymerized amyloid beta polymer was dispensed by 200 uL. Then, 20 μL of a solution in which each of Gd-DO3A-Va and the commercial contrast agent (Gadovist®) was dissolved in PBS at 2 mM concentration was added thereto. The incubation was carried out thereon at 37° C. for 24 hours using a shaker. • (4) After 24 hours has elapsed, centrifugation was performed thereon to remove the supernatant therefrom. The amyloid beta polymer was washed using PBS. 200 μL of a solution of PBS:DMSO=9:1 was added to a pellet to prepare an MRI phantom sample. As a control, a phantom sample obtained by incubating only the amyloid beta polymer was used. […]

[2] = Measurement of relaxivity (r1, r2), phantom in 3T MRI; format: physicochemical; settings: tertiary distilled water, 0.0625-1 mM, linear regression, in mM-1 s-1 (unit assumed)
Experimental: The relaxivity (r1, r2) of each of synthesized Gd-DO3A-Va, and cyclic commercial contrast agents Gadovist® and Dotarem® as comparison groups material was measured. Specifically, a phantom was prepared by diluting the gadolinium complex in tertiary distilled water to five concentrations (0.0625, 0.125, 0.25, 0.5, 1 mM), and then T1 and T2 relaxation times were measured in 3T MRI. Thus, R (Relaxation rate=1/T) of each concentration was calculated and the relaxivity (r1, r2) result of the gadolinium complex was obtained through linear regression analysis (see FIG. 3) and shown in a following Table 1.

Sequence of amyloid beta polymer (P05067 672-713 limits assumed): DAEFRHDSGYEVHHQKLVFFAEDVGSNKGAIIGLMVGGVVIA

Row | relaxivity r1 [2] | relaxivity r2 [2] | Structure (SMILES) | contrast enhancement / signal intensity compared to phantom of only amyloid beta polymer [1]
1 | 3.9 ± 0.1 | 4.8 ± 0.1 | O=C([O-])CN1CCN(CC(=O)[O-])CCN([C@H](CO)[C@H](O)CO)CCN(CC(=O)[O-])CC1.[Gd+3] (racemic) [Gadovist ®] | little difference in contrast enhancement effect
2 | 3.4 ± 0.1 | 3.9 ± 0.2 | CNC[C@H](O)[C@@H](O)[C@H](O)[C@H](O)CO.O=C([O-])CN1CCN(CC(=O)[O-])CCN(CC(=O)O)CCN(CC(=O)[O-])CC1.[Gd+3] [Dotarem ®] | –
